Laboratory results reported in patent US20130231347A1, “METHOD OF TREATMENT WITH BRAF INHIBITOR” (GLAXOSMITHKLINE INTELLECTUAL PROPERTY (NO.2) LIMITED, priority 2010, published 2013).
Read-outs that look alike come from different tables or passages of the source. Each block holds one molecule with its values, some of them ahead of it.

Key:
[1] = system: A375 F11 clones that acquired resistance to Compound A; assay: Cell growth inhibition assay, resistant A375 clones taken together; conditions: Homo sapiens
Procedure: (§1) A clonal isolate, hereinafter referred to as “A375 F11”, was obtained from the A375 cell line (obtained from ATCC), based on increased sensitivity to a BRAF inhibitor. A375 F11 cells were exposed to increasing concentrations of Compound A and maintained in a final concentration of 1.26 μM or 1.6 μM. 12R5-3, 12R8-1, 12R8-3, 16R5-5, 16R6-2, 16R6-3 and 16R6-4 were derived as single cell clones from mixed populations of these A375 F11 cells selected to grow in the presence of Compound A. All cells were grown in RPMI 1640 medium containing 10% Fetal Bovine Serum (FBS).
(§2) All cells were cultured without compound, e.g. Compound A, for a minimum of 72 hours prior to cell plating. Cells were assayed in a 96-well tissue culture plate (NUNC 136102) of RPMI medium containing 10% FBS for all cells at 1,000 cells per well. Approximately 24 hours after plating, cells were exposed to ten, three-fold serial dilutions of compound or the combination of the two agents at a constant molar to molar ratio, e.g. 10:1 Compound A to Compound B, in RPMI media containing 10% FBS. Cells were incubated in the presence of compounds for 3 days. ATP levels were determined by adding Cell Titer Glo® (Promega) according to the manufacturer's protocol. Briefly, Cell Titer Glo® was added each plate, incubated for 30 minutes then luminescent signal was read on the SpectraMax L plate reader with a 0.5 sec integration time. Inhibition of cell growth was estimated after treatment with compound or combination of compounds for three days and comparing the Cell Titer Glo® signal to cells treated with vehicle (DMSO). Cell growth was calculated relative to vehicle (DMSO) treated control wells.
(§3) For single agent and combination treatments, cells were exposed to compounds at a fixed-dose-ratio, and dose response curves were fit to the experimental data and analyzed using regression models.

[2] = system: 16R6-4 (A375 F11 clone with acquired resistance to Compound A); assay: Cell growth inhibition assay (Cell Titer Glo, 3 days); format: cell-based; conditions: Homo sapiens, A-375, 72 h, A146A/T, MEK1 P387P/S, single agent
Procedure: as §1, §2, §3

A375 F11 cells = assay: as above; format: cell-based; conditions: Homo sapiens, 72 h, MEK1 WT, single agent
Procedure: as §1, §2, §3

[3] = system: 12R9 (A375 F11 line with acquired resistance to Compound A); assay: as above; format: cell-based; conditions: Homo sapiens, A-375, 72 h, Table 3, 12R9: NRAS Q61Q/R, MEK1 ND, single agent
Procedure: as §1
All cells were cultured without compound, e.g. Compound A, for a minimum of 72 hours prior to cell plating. Cells were assayed in a 96-well tissue culture plate (NUNC 136102) of RPMI medium containing 10% FBS for all cells at 1,000 cells per well. […] ATP levels were determined by adding Cell Titer Glo® (Promega) according to the manufacturer's protocol. Briefly, Cell Titer Glo® was added each plate, incubated for 30 minutes then luminescent signal was read on the SpectraMax L plate reader with a 0.5 sec integration time. […] Cell growth was calculated relative to vehicle (DMSO) treated control wells.
as §3

[4] = system: 12R8-1 (A375 F11 clone with acquired resistance to Compound A); assay: as above; format: cell-based; conditions: Homo sapiens, A-375, 72 h, MEK1 WT, single agent
Procedure: as §1, §2, §3

[5] = system: 12R5-3 (A375 F11 clone with acquired resistance to Compound A); assay: as above; format: cell-based; conditions: Homo sapiens, A-375, 72 h, MEK1 WT, single agent
Procedure: as §1, §2, §3

[6] = system: 16R6-3 (A375 F11 clone with acquired resistance to Compound A); assay: as above; format: cell-based; conditions: Homo sapiens, A-375, 72 h, MEK1 P387P/S, single agent
Procedure: as §1, §2, §3

[7] = system: 12R8-3 (A375 F11 clone with acquired resistance to Compound A); assay: as above; format: cell-based; conditions: Homo sapiens, A-375, 72 h, MEK1 WT, single agent
Procedure: as §1, §2, §3

[8] = system: 12R5-1 (A375 F11 clone with acquired resistance to Compound A); assay: as above; format: cell-based; conditions: Homo sapiens, A-375, 72 h, MEK1 HET 59delK, single agent
Procedure: as §1, §2, §3

[9] = system: 16R6-2 (A375 F11 clone with acquired resistance to Compound A); assay: as above; format: cell-based; conditions: Homo sapiens, A-375, 72 h, MEK1 P387P/S, single agent
Procedure: as §1, §2, §3

[10] = system: 12R5-5 (A375 F11 clone with acquired resistance to Compound A); assay: as above; format: cell-based; conditions: Homo sapiens, A-375, 72 h, MEK1 HET 59delK, single agent
Procedure: as §1, §2, §3

[11] = system: 16R5-5 (A375 F11 clone with acquired resistance to Compound A); assay: as above; format: cell-based; conditions: Homo sapiens, A-375, 72 h, MEK1 P387P/S, single agent
Procedure: as §1, §2, §3

[12] = system: YUSIT1 clones that acquired resistance to Compound A (BRAF V600K); assay: Cell growth inhibition assay, resistant YUSIT1 clones; format: cell-based, human; conditions: YUSIT1 clones resistant to Compound A
Excerpt: The YUSIT1 melanoma cells were obtained from Yale Dermatology Cell Culture Facility.

IC50 ([1]; A-375, read-out: IC50, cell growth): > 10000 nM
Structure (SMILES): CCCS(=O)(=O)Nc1ccc(F)c(C(=O)c2c[nH]c3ncc(-c4ccc(Cl)cc4)cc23)c1F [PLX4032, reference compound]

IC50 ([2]; Table 3, 16R6-4: NRAS Q61Q/K, read-out: IC50, Single Agent, Compound C): 213 ± 169 nM
IC50 (A375 F11 cells; Table 3, F11: NRAS WT, read-out: IC50, Single Agent, Compound C): 98 ± 58 nM
IC50 ([3]; n = 1, read-out: IC50, Single Agent, Compound C): 57 nM
IC50 ([4]; Table 3, 12R8-1: NRAS A146A/T, read-out: IC50, Single Agent, Compound C): 145 ± 47 nM
IC50 ([5]; Table 3, 12R5-3: NRAS A146A/T, read-out: IC50, Single Agent, Compound C): 159 ± 140 nM
IC50 ([6]; Table 3, 16R6-3: NRAS A146A/T, read-out: IC50, Single Agent, Compound C): 162 ± 99 nM
IC50 ([7]; Table 3, 12R8-3: NRAS A146A/T, n = 1, read-out: IC50, Single Agent, Compound C): 375 nM
IC50 ([8]; Table 3, 12R5-1: NRAS WT, read-out: IC50, Single Agent, Compound C): 155 ± 130 nM
IC50 ([9]; Table 3, 16R6-2: NRAS Q61Q/K, read-out: IC50, Single Agent, Compound C): 111 ± 87 nM
IC50 ([10]; Table 3, 12R5-5: NRAS WT, read-out: IC50, Single Agent, Compound C): 87 ± 1 nM
IC50 ([11]; Table 3, 16R5-5: NRAS Q61Q/K, read-out: IC50, Single Agent, Compound C): 91 ± 36 nM
Structure (SMILES): COc1ncc(-c2ccc3nccc(-c4ccnnc4)c3c2)cc1NS(=O)(=O)c1ccc(F)cc1F [Compound C, 2,4-difluoro-N-{2-(methyloxy)-5-[4-(4-pyridazinyl)-6-quinolinyl]-3-pyridinyl}benzenesulfonamide]

IC50 ([1]; A-375, read-out: IC50 of the combination, for Compound B): 18 to 39 nM
IC50 ([2]; 16R6-4: NRAS Q61Q/K, read-out: IC50, Single Agent Effect, Compound B): > 1000 nM
IC50 ([2]; Table 3, 16R6-4: NRAS Q61Q/K, read-out: IC50, Single Agent, Compound B): 475 ± 587 nM
IC50 (A375 F11 cells; F11: NRAS WT, mean ± std, read-out: IC50, Single Agent Effect, Compound B): 2 ± 2 nM
IC50 (A375 F11 cells; Table 3, F11: NRAS WT, read-out: IC50, Single Agent, Compound B): 6 ± 4 nM
IC50 ([3]; n = 1, read-out: IC50, Single Agent, Compound B): 24 nM
IC50 ([4]; 12R8-1: NRAS A146A/T, read-out: IC50, Single Agent Effect, Compound B): 81 ± 31 nM
IC50 ([4]; Table 3, 12R8-1: NRAS A146A/T, read-out: IC50, Single Agent, Compound B): 56 ± 39 nM
IC50 ([5]; 12R5-3: NRAS A146A/T, read-out: IC50, Single Agent Effect, Compound B): 78 ± 29 nM
IC50 ([5]; Table 3, 12R5-3: NRAS A146A/T, read-out: IC50, Single Agent, Compound B): 132 ± 54 nM
IC50 ([6]; 16R6-3: NRAS A146A/T, read-out: IC50, Single Agent Effect, Compound B): 162 ± 67 nM
IC50 ([6]; Table 3, 16R6-3: NRAS A146A/T, read-out: IC50, Single Agent, Compound B): 137 ± 77 nM
IC50 ([7]; 12R8-3: NRAS A146A/T, read-out: IC50, Single Agent Effect, Compound B): 59 ± 37 nM
IC50 ([7]; Table 3, 12R8-3: NRAS A146A/T, n = 1, read-out: IC50, Single Agent, Compound B): 84 nM
IC50 ([8]; 12R5-1: NRAS WT, read-out: IC50, Single Agent Effect, Compound B): > 1000 nM
IC50 ([8]; Table 3, 12R5-1: NRAS WT, read-out: IC50, Single Agent, Compound B): > 1000 nM
IC50 ([9]; 16R6-2: NRAS Q61Q/K, read-out: IC50, Single Agent Effect, Compound B): 99 ± 58 nM
IC50 ([9]; Table 3, 16R6-2: NRAS Q61Q/K, read-out: IC50, Single Agent, Compound B): 339 ± 366 nM
IC50 ([10]; 12R5-5: NRAS WT, read-out: IC50, Single Agent Effect, Compound B): > 1000 nM
IC50 ([10]; Table 3, 12R5-5: NRAS WT, read-out: IC50, Single Agent, Compound B): 315 ± 212 nM
IC50 ([11]; 16R5-5: NRAS Q61Q/K, read-out: IC50, Single Agent Effect, Compound B): 129 ± 54 nM
IC50 ([11]; Table 3, 16R5-5: NRAS Q61Q/K, read-out: IC50, Single Agent, Compound B): 97 nM
Structure (SMILES): CC(=O)Nc1cccc(-n2c(=O)n(C3CC3)c(=O)c3c(Nc4ccc(I)cc4F)n(C)c(=O)c(C)c32)c1 [Compound B, N-{3-[3-cyclopropyl-5-(2-fluoro-4-iodo-phenylamino)-6,8-dimethyl-2,4,7-trioxo-3,4,6,7-tetrahydro-2H-pyrido[4,3-d]pyrimidin-1-yl]phenyl}acetamide]
IC50 ([12]; Homo sapiens, single agent, read-out: IC50, cell growth inhibition): 2 to 5 nM
reduced sensitivity compared to the parental YUSIT1 cells ([12]; single agent (FIG. 9)): 3-7 fold
